Results on 1 molecule are retold here after PMC6689897, “Drugging an undruggable pocket on KRAS” (Proceedings of the National Academy of Sciences of the …, 2019).

In one test the target is T1, GTP-KRASwt::SOS1 (Homo sapiens, UniProt P01116).
T1 construct: biotin (attachment tag not described)
In words: Alpha Screen PPI assay. Format: biochemical. The conditions noted are these: duplicate. On the procedure:
(§1) 221 Measurements of various protein–protein interactions were performed using the Alpha
(§2) 222 Screen technology developed by Perkin Elmer. Recombinant RAS proteins (H-, N-, K-
(§3) 223 RAS variants; all KRAS variants are based on KRAS isoform 4B (uniprot id P01116-2);
(§4) 224 KRAS (G12D) 1-169, N-terminal 6His-tag, C-terminal avi-tag was from Xtal
(§5) 225 BioStructures, Inc., KRAS (G12C) 1-169, C-terminal avi-tag, biotinylated, mutations:
(§6) 226 C51S, C80L, C118S, NRAS(wt) 1-172, C-terminal avi-tag, biotinylated; HRAS(wt) 1-
(§7) 227 166, C-terminal avi-tag, biotinylated). Biotinylation was performed in vitro with
(§8) 228 recombinant BirA biotin-protein ligase as recommended by the manufacturer (Avidity
(§9) 229 LLC, Aurora, Colorado, USA). Interacting proteins such as SOS1 (564-1049, N-terminal
(§10) 230 GST-tag, TEV cleavage site), cRaf (1-303, N-terminal GST-tag, TEV cleavage site) and
(§11) 231 PI3KA- RBD (160-317, N-term-HIS_GST-tag) were expressed as glutathione S
(§12) 232 transferase (GST) fusions. Accordingly, the Alpha Screen beads were glutathione coated
(§13) 233 Alpha Lisa acceptor beads (Perkin Elmer AL 109 R) and Alpha Screen Streptavidin
(§14) 234 conjugated donor beads (Perkin Elmer 6760002L). Nucleotides were purchased from
(§15) 236 interaction assays were carried out in PBS, containing 0.1% bovine serum albumin,
(§16) 237 0,05% Tween-20 and 10 µM of the corresponding nucleotide. Assays were carried out in
(§17) 238 white ProxiPlate-384 Plus plates (Perkin Elmer #6008280) in a final volume of 20 µL. In
(§18) 239 brief, biotinylated RAS proteins (10 nM final concentration) and GST-SOS1, GST-PI3K
(§19) 240 or GST-CRAF (10 nM final) were mixed with glutathione acceptor beads (5 µg/mL final
(§20) 241 concentration) in buffer, containing the corresponding nucleotides (GDP or GTP for
(§21) 242 assays containing SOS1, only GTP for interaction assays containing PI3K or CRAF) and
(§22) 243 were incubated for 30 min at room temperature. After addition of streptavidin donor
(§23) 244 beads (5 µg/mL final concentration) under green light, the mixture was further incubated
(§24) 245 for 60 min in the dark at room temperature. Single oxygen induced fluorescence was
(§25) 246 measured at an Enspire multimode plate reader (Perkin Elmer) according to the
(§26) 247 manufacturer’s recommendations. […]

For the next test, the system named is GTP-KRASwt::CRAF. The test is described as follows: Alpha Screen PPI assay. Format: biochemical, human. On the procedure:
as §1, §2, §3, §4, §5, §6, §7, §8, §9, §10, §11, §12, §13, §14, §15, §16, §17, §18, §19, §20, §21, §22, §23, §24, §25, §26

A further test deals with T2, GTP-KRASwt::PI3Kα (Homo sapiens, UniProt P01116).
T2 construct: biotin (attachment tag not described)
In words: Alpha Screen PPI assay. The conditions noted are these: duplicate, read-out: IC50 GTP-KRASwt ::PI3K. Format: biochemical. On the procedure: as §1, §2, §3, §4, §5, §6, §7, §8, §9, §10, §11, §12, §13, §14, §15, §16, §17, §18, §19, §20, §21, §22, §23, §24, §25, §26

The next test concerns NCI-H358 cells. In words: Soft agar proliferation assay in low serum. Format: cell-based. The conditions noted are these: Homo sapiens, soft agar and low serum conditions, read-out: EC50 antiproliferative effect. On the procedure: 263 (ATCC® CCL-224™; grown in RPMI 10% FCS) and SK-MEL-28 (ATCC® HTB-
264 72™, grown in EMEM 10% FCS). Cell cultures were incubated at 37 °C and 5% CO2 in
265 a humidified atmosphere, with medium change or subcultivation 2-3 times a week.
269 Cells were lysed in 1x lysis buffer (Cell Signaling #9803) and protein concentration
270 normalized to 10µg/µL. Proteins were separated by SDS-Page and transferred to
271 Nitrocellulose membranes (BioRad) according to standard protocols. Membranes were
273 (Milipore #06-182) and Tubulin (Cell Signaling #2144) in 5% BSA in TBST blocking
274 buffer. After primary antibody incubation membranes were incubated with anti-rabbit
275 IgG secondary antibody (Dako #P0448) and detected with ECL (GE Healthcare Life
278 Compound treatment of cells
279 Synthesized or purchased (ARS 1620) compounds were dissolved in 100% DMSO and
280 stored at a concentration of 10mM at -20°C. Compounds were either serially diluted in […]
Quantification of living cells […]
291 manufacturer’s recommendation. Luminescence was read in a 2030 VICTOR X5 (Perkin […]
305 were trypsinized, counted and plated in 60 µL culture medium containing 2% FCS […]
313 added according to manufacturer’s instructions. Fluorescence intensity was determined
314 using a fluorescence reader (2030 VICTOR X5, Perkin Elmer). […]
319 MAPK pathway signaling (pERK, pAKT quantification) […]

T2 sequence (P01116 1-188 isoform P01116-2): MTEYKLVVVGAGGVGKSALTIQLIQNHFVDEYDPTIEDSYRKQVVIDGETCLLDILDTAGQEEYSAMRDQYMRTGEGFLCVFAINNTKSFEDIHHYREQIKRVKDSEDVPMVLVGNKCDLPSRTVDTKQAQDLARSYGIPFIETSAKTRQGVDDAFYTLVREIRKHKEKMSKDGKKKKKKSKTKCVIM
T1 sequence (P01116 1-188 isoform P01116-2): as above

`Cn1cnc(Cn2ccc3ccc(CNCc4[nH]c5ccccc5c4[C@H]4NC(=O)c5ccc(O)cc54)cc32)c1` [Compound 1]: the IC50 (commonly the concentration at which inhibition is half-maximal) against GTP-KRASwt::SOS1 was determined as 490 nM; at GTP-KRASwt::PI3Kα it was 250 nM. In addition, the “selectivity of inhibition biochemically, KRAS^wt versus KRAS^G12C binding to CRAF” value with GTP-KRASwt::CRAF was determined as 4 fold. For the same molecule, the EC50 (commonly the concentration at which the effect is half-maximal) with NCI-H358 cells is 6700 nM.
